Measurements as given in PubChem BioAssay AID1259411 (Chemical Carcinogenesis Research Information System (CCRIS), 2018).
Activity calls are given as the source filed them. How the calls were made is not given here.

Tested on: rodent carcinogenicity bioassays, tumor incidence
Test: CCRIS carcinogenicity studies
How it was run: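 Archive of carcinogenicity, mutagenicity, tumor promotion and tumor inhibition results drawn from journals, NCI reports and other sources, expert-reviewed; covers 1985-2011 and is no longer updated.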

## COc1cc(-c2ccc(N/N=C3/C(=O)c4c(N)cc(S(=O)(=O)O)cc4C=C3S(=O)(=O)O)c(OC)c2)ccc1N/N=C1/C(=O)c2c(N)cc(S(=O)(=O)O)cc2C=C1S(=O)(=O)O
Species: RAT, Strain/Sex: F344/FEMALE, Route: ORAL, Dose: 0, 630, 1250, 2500 PPM IN DRINKING WATER FOR 22 MO (STUDY DURATION: 22 MO), Dose: 0, 630, 1250, 2500 PPM IN DRINKING WATER FOR 22 MO (STUDY DURATION: 22 MO), Tumor Site: Type of Lesion: CLITORAL GLAND: ADENOMA, CARCINOMA, LIVER: NEOPLASTIC NODULE OR HEPATOCELLULAR CARCINOMA, ORAL CAVITY (TONGUE OR PHARYNX, Tumor Site: Type of Lesion: CLITORAL GLAND: ADENOMA, CARCINOMA, LIVER: NEOPLASTIC NODULE OR HEPATOCELLULAR CARCINOMA, ORAL CAVITY (TONGUE OR PHARYNX
  carcinogen call: active; positive
Species: RAT, Strain/Sex: F344/MALE, Route: ORAL, Dose: 0, 630, 1250, 2500 PPM IN DRINKING WATER FOR 22 MO (STUDY DURATION: 22 MO), Dose: 0, 630, 1250, 2500 PPM IN DRINKING WATER FOR 22 MO (STUDY DURATION: 22 MO), Tumor Site: Type of Lesion: LARGE INTESTINE: ADENOMATOUS POLYP OR ADENOCARCINOMA, LIVER: NEOPLASTIC NODULE OR HEPATOCELLULAR CARCINOMA, ORAL CAVITY, Tumor Site: Type of Lesion: LARGE INTESTINE: ADENOMATOUS POLYP OR ADENOCARCINOMA, LIVER: NEOPLASTIC NODULE OR HEPATOCELLULAR CARCINOMA, ORAL CAVITY
  carcinogen call: active; positive

## Oc1ccc2c(c1)OCO2
Species: MOUSE, Strain/Sex: B6C3F1/FEMALE, Route: ORAL, Dose: 0, 2% IN DIET FOR 96 WK (STUDY DURATION: 96 WK), Tumor Site: Type of Lesion: FORESTOMACH: SQUAMOUS CELL CARCINOMA
  carcinogen call: active; positive
Species: MOUSE, Strain/Sex: B6C3F1/FEMALE, Route: ORAL, Dose: 0, 2% IN POWDERED BASAL DIET FOR 96 WK (STUDY DURATION: 96 WK), Tumor Site: Type of Lesion: FORESTOMACH: SQUAMOUS CELL CARCINOMA
  carcinogen call: active; positive
Species: MOUSE, Strain/Sex: B6C3F1/MALE, Route: ORAL, Dose: 0, 2% IN DIET FOR 96 WK (STUDY DURATION: 96 WK), Tumor Site: Type of Lesion: FORESTOMACH: SQUAMOUS CELL CARCINOMA
  carcinogen call: active; positive
Species: MOUSE, Strain/Sex: B6C3F1/MALE, Route: ORAL, Dose: 0, 2% IN POWDERED BASAL DIET FOR 96 WK (STUDY DURATION: 96 WK), Tumor Site: Type of Lesion: FORESTOMACH: SQUAMOUS CELL CARCINOMA
  carcinogen call: active; positive
Species: RAT, Strain/Sex: F344/FEMALE, Route: ORAL, Dose: 0, 2% IN DIET FOR 104 WK (STUDY DURATION: 104 WK)
  carcinogen call: inactive; negative
Species: RAT, Strain/Sex: F344/FEMALE, Route: ORAL, Dose: 0, 2% IN DIET FOR 104 WK (STUDY DURATION: 104 WK), Tumor Site: Type of Lesion: FORESTOMACH: PAPILLOMA
  carcinogen call: active; positive
Species: RAT, Strain/Sex: F344/FEMALE, Route: ORAL, Dose: 0, 2% IN POWDERED BASAL DIET FOR 104 WK (STUDY DURATION: 104 WK), Tumor Site: Type of Lesion: FORESTOMACH: PAPILLOMA
  carcinogen call: active; positive
Species: RAT, Strain/Sex: F344/MALE, Route: ORAL, Dose: 0, 0.4% IN DIET FOR DURATION OF STUDY (STUDY DURATION: 104 WK)
  carcinogen call: inactive; negative
Species: RAT, Strain/Sex: F344/MALE, Route: ORAL, Dose: 0, 2% IN DIET FOR 104 WK (STUDY DURATION: 104 WK), Tumor Site: Type of Lesion: FORESTOMACH: PAPILLOMA, SQUAMOUS CELL CARCINOMA
  carcinogen call: active; positive
Species: RAT, Strain/Sex: F344/MALE, Route: ORAL, Dose: 0, 2% IN DIET FOR 104 WK (STUDY DURATION: 104 WK), Tumor Site: Type of Lesion: FORESTOMACH: SQUAMOUS CELL CARCINOMA
  carcinogen call: active; positive
Species: RAT, Strain/Sex: F344/MALE, Route: ORAL, Dose: 0, 2% IN POWDERED BASAL DIET FOR 104 WK (STUDY DURATION: 104 WK), Tumor Site: Type of Lesion: FORESTOMACH: PAPILLOMA, SQUAMOUS CELL CARCINOMA
  carcinogen call: active; positive

## O=[N+]([O-])c1cc(N(CCO)CCO)ccc1NCCO
Species: MOUSE, Strain/Sex: B6C3F1/FEMALE, Route: ORAL, Dose: 0, 10000, 20000 PPM IN DIET FOR 104 WK, Dose: 0, 10000, 20000 PPM IN DIET FOR 104 WK
  carcinogen call: inactive; negative
Species: MOUSE, Strain/Sex: B6C3F1/MALE, Route: ORAL, Dose: 0, 5000, 10000 PPM IN DIET FOR 104 WK, Dose: 0, 5000, 10000 PPM IN DIET FOR 104 WK
  carcinogen call: inactive; negative
Species: RAT, Strain/Sex: F344/FEMALE, Route: ORAL, Dose: 0, 10000, 20000 PPM IN DIET FOR 103 WK, Dose: 0, 10000, 20000 PPM IN DIET FOR 103 WK
  carcinogen call: inactive; negative
Species: RAT, Strain/Sex: F344/MALE, Route: ORAL, Dose: 0, 5000, 10000 PPM IN DIET FOR 103 WK, Dose: 0, 5000, 10000 PPM IN DIET FOR 103 WK
  carcinogen call: inactive; negative

## Cc1ccc(N)cc1
Species: MOUSE, Route: ORAL, Tumor Site: Type of Lesion: LIVER
  carcinogen call: active; positive

## Nc1cc([N+](=O)[O-])ccc1O
Species: MOUSE, Strain/Sex: B6C3F1/FEMALE, Route: GAVAGE, Dose: 0, 125, 250 MG/KG IN CORN OIL 5D/WK FOR 103 WK (STUDY DURATION: 105 WK), Dose: 0, 125, 250 MG/KG IN CORN OIL 5D/WK FOR 103 WK (STUDY DURATION: 105 WK)
  carcinogen call: inactive; negative
Species: MOUSE, Strain/Sex: B6C3F1/MALE, Route: GAVAGE, Dose: 0, 125, 250 MG/KG IN CORN OIL 5D/WK FOR 103 WK (STUDY DURATION: 105 WK), Dose: 0, 125, 250 MG/KG IN CORN OIL 5D/WK FOR 103 WK (STUDY DURATION: 105 WK)
  carcinogen call: inactive; negative
Species: RAT, Strain/Sex: F344/FEMALE, Route: GAVAGE, Dose: 0, 125, 250 MG/KG IN CORN OIL 5D/WK FOR 103 WK (STUDY DURATION: 105 WK), Dose: 0, 125, 250 MG/KG IN CORN OIL 5D/WK FOR 103 WK (STUDY DURATION: 105 WK)
  carcinogen call: inactive; negative
Species: RAT, Strain/Sex: F344/MALE, Route: GAVAGE, Dose: 0, 125, 250 MG/KG IN CORN OIL 5D/WK FOR 103 WK (STUDY DURATION: 105 WK), Dose: 0, 125, 250 MG/KG IN CORN OIL 5D/WK FOR 103 WK (STUDY DURATION: 105 WK), Tumor Site: Type of Lesion: PREPUTIAL GLAND: ADENOMA OR CARCINOMA
  carcinogen call: active; positive

## CC(=O)N(O)c1ccc(/C=C/c2ccccc2)cc1
Species: RAT, Strain/Sex: STRAIN-CD/FEMALE, Route: INTRAPERITONEAL, Dose: 0, 10 UMOL/KG BW 2/WK FOR 6 WK (STUDY DURATION: 62 WK), Tumor Site: Type of Lesion: LIVER: NEOPLASTIC NODULE, MAMMARY GLAND: TUMOR, EAR DUCT: TUMOR, PITUITARY GLAND: CARCINOMA, Tumor Site: Type of Lesion: LIVER: NEOPLASTIC NODULE, MAMMARY GLAND: TUMOR, EAR DUCT: TUMOR, PITUITARY GLAND: CARCINOMA
  carcinogen call: active; positive
Species: RAT, Strain/Sex: STRAIN-CD/MALE, Route: INTRAPERITONEAL, Dose: 0, 10 UMOL/KG BW 2/WK FOR 6 WK (STUDY DURATION: 62 WK), Tumor Site: Type of Lesion: TESTICLE: MESOTHELIOMA, PANCREAS(ACINUS): ADENOMA, EAR DUCT: CARCINOMA, Tumor Site: Type of Lesion: TESTICLE: MESOTHELIOMA, PANCREAS(ACINUS): ADENOMA, EAR DUCT: CARCINOMA
  carcinogen call: active; positive

## CC(O)COC(C)(C)C (stereo not drawn)
Species: MOUSE, Strain/Sex: B6C3F1/FEMALE, Route: INHALATION, Dose: 0, 75, 300, 1200 PPM 6 HR/D, 5 D/WK FOR 104 WKS, Dose: 0, 75, 300, 1200 PPM 6 HR/D, 5 D/WK FOR 104 WKS, Tumor Site: Type of Lesion: LIVER: HEPATOCELLULAR ADENOMA, CARCINOMA OR HEPATOBLASTOMA
  carcinogen call: active; positive
Species: MOUSE, Strain/Sex: B6C3F1/MALE, Route: INHALATION, Dose: 0, 75, 300, 1200 PPM 6 HR/D, 5 D/WK FOR 104 WKS, Dose: 0, 75, 300, 1200 PPM 6 HR/D, 5 D/WK FOR 104 WKS, Tumor Site: Type of Lesion: LIVER: HEPATOCELLULAR ADENOMA, CARCINOMA OR HEPATOBLASTOMA
  carcinogen call: active; positive
Species: RAT, Strain/Sex: F344/N/FEMALE, Route: INHALATION, Dose: 0, 75, 300, 1200 PPM 6 HR/D, 5 D/WK FOR 104 WKS, Dose: 0, 75, 300, 1200 PPM 6 HR/D, 5 D/WK FOR 104 WKS
  carcinogen call: inactive; negative
Species: RAT, Strain/Sex: F344/N/MALE, Route: INHALATION, Dose: 0, 75, 300, 1200 PPM 6 HR/D, 5 D/WK FOR 104 WKS, Dose: 0, 75, 300, 1200 PPM 6 HR/D, 5 D/WK FOR 104 WKS, Tumor Site: Type of Lesion: NO STATISTICALLY SIGNIFICANT INCREASE IN TUMORS BUT KIDNEY TUBULE TUMORS INCREASED SLIGHTLY
  carcinogen call: equivocal
